Assay results reported in patent publication EP3636645A1, “PROCESS FOR THE PREPARATION OF SULFUR-SUBSTITUTED PYRIDINE DERIVATIVES” (Bayer Aktiengesellschaft, priority 2018, dated 2020).

Experiment: physchem
Format: physicochemical
Description: Die Bestimmung der logP-Werte erfolgte gemäß EEC Directive 79/831 Annex V.A8 durch HPLC (High Performance Liquid Chromatography) an einer Phasenumkehrsäule (C18) mit Hilfe folgender Methoden: Der logP[a] Wert wird durch LC-UV Messung im sauren Bereich bestimmt, mit 0,9 mL/L Ameisensäure in Wasser und 1,0 mL/L Ameisensäure in Acetonitril als Eluenten (linearer Gradient von 10% Acetonitrile bis 95% Acetonitril).
Der logP[n] Wert wird durch LC-UV Messung im neutralen Bereich bestimmt, mit 79 mg/L Ammoniumcarbonat in Wasser und Acetonitril als Eluenten (linearer Gradient von 10% Acetonitril bis 95% Acetonitril).
Die Kalibrierung wurde mit einer homologen Reihe geradkettiger Alkan-2-one (mit 3 bis 16 Kohlenstoffatomen) mit bekannten logP Werten durchgeführt. Die Werte zwischen aufeinanderfolgender Alkanone werden durch lineare Regression bestimmt.

- chromatographic logP (hplc c18, acidic formic acid): 3
- chromatographic logP (hplc c18, ammonium carbonate): 2.97
Compound: Cn1c(-c2ncccc2SC(F)(F)F)nc2cc(C(F)(F)F)ncc21 [Beispiel 1, 3-Methyl-6-(trifluormethyl)-2-{3-[(trifluormethyl)sulfanyl]pyridin-2-yl}-3H-imidazo [4,5-c] pyridin]
